Experiments:
Format in all cases: cell-based, rat
RGC-5 = test: Hoechst 33342 and PI staining after hypoxia; details: hypoxia 48 hours; 100 μM of agmatine or 10 ng/mL of BDNF
Protocol: The RGC-5 cell line, which is a RGC line developed from post-natal Sprague-Dawley rats, was grown in modified Dulbecco's Modified Eagle's Medium (DMEM; Gibco) supplemented with 10% of heat inactivated fetal bovine serum (Gibco) and 100 U/mL of penicillin and 100 μg/mL of streptomycin (Gibco). The cells were passaged every 2 to 3 days, and the cultures incubated at 37° C. in 5% of CO2 and air. […] For all experiments, cells were used at an 80% confluence. Cultures were transferred into a closed hypoxic chamber (Form a Scientific Co.) in which oxygen level (5% of O2, 5% of CO2, 90% of N2) and temperature (37° C.) were controlled. After washing twice with deoxygenated serum-free DMEM, cells were maintained in the hypoxic chamber. Control cells were not exposed to hypoxia. Agmatine or BDNF were added to the culture medium at the start of injury as indicated. Apoptotic or necrotic cell death was characterized by the use of Hoechst 33342 and PI double staining. Cells were stained with 10 μg/mL of Hoechst 33342 and 10 μg/mL of PI at 37° C. for 30 minutes. After washing twice with phosphate buffered saline (PBS), cells were imaged with a digital camera attached to a fluorescence microscope.

p38 = test: Western blot, phospho-p38 in hypoxic RGC-5; details: agmatine 100 μM, BDNF 10 ng/mL
Protocol: The RGC-5 cell line, which is a RGC line developed from post-natal Sprague-Dawley rats, was grown in modified Dulbecco's Modified Eagle's Medium (DMEM; Gibco) supplemented with 10% of heat inactivated fetal bovine serum (Gibco) and 100 U/mL of penicillin and 100 μg/mL of streptomycin (Gibco). The cells were passaged every 2 to 3 days, and the cultures incubated at 37° C. in 5% of CO2 and air. […] For all experiments, cells were used at an 80% confluence. Cultures were transferred into a closed hypoxic chamber (Form a Scientific Co.) in which oxygen level (5% of O2, 5% of CO2, 90% of N2) and temperature (37° C.) were controlled. […] The protein concentrations in the resultant supernatants were measured with the Bradford reagent, and equal amounts of protein (40 μg) were boiled in Laemmli sample buffer, followed by being resolved by 10 or 15% SDS-PAGE. The proteins were transferred to polyvinylidene fluoride membranes (Immobilon; Millipore, Billerica, Mass.) and then probed overnight with antibodies against JNK, ERK p44/42, p38, NF-κB p65, phospho-JNK, phospho-ERK p44/42, phospho-p38, phospho-NF-κB, (3-actin and histone 3 as indicated (diluted 1:1000). The immunoreactive bands were detected with horseradish peroxidase-conjugated secondary antibodies and visualized by enhanced chemiluminescence.

NF-κB = test: Western blot, NF-κB in nuclear and cytosolic fraction of hypoxic RGC-5; details: for increase in phospho-NF-κB, nuclear fraction / increase in total NF-κB expression, cytoplasmic fraction: hypoxia 1 hour; for total NF-κB and histone 3, nuclear fraction: hypoxic RGC-5
Protocol: The RGC-5 cell line, which is a RGC line developed from post-natal Sprague-Dawley rats, was grown in modified Dulbecco's Modified Eagle's Medium (DMEM; Gibco) supplemented with 10% of heat inactivated fetal bovine serum (Gibco) and 100 U/mL of penicillin and 100 μg/mL of streptomycin (Gibco). The cells were passaged every 2 to 3 days, and the cultures incubated at 37° C. in 5% of CO2 and air. […] For all experiments, cells were used at an 80% confluence. Cultures were transferred into a closed hypoxic chamber (Form a Scientific Co.) in which oxygen level (5% of O2, 5% of CO2, 90% of N2) and temperature (37° C.) were controlled. After washing twice with deoxygenated serum-free DMEM, cells were maintained in the hypoxic chamber. Control cells were not exposed to hypoxia. Agmatine or BDNF were added to the culture medium at the start of injury as indicated. For fraction of cytosolic and nuclear proteins, cells were lysed with lysis buffer A (10 mM of HEPES (pH 7.4), 10 mM of KCl, 0.1 mM of EDTA, 0.1 mM of EGTA, 1 mM of DTT, 10 mM of Na3VO4, 50 mM of NaF, 1 mM of PMSF, 1 μg/mL of aprotinin, 1 μg/mL of leupeptin, 1 μg/mL of pepstatin) on ice for 15 minutes, and 10% of NP-40 was then added thereto. After vortexing for 10 seconds, lysates were centrifuged at 15,000 g at 4° C. for 1 minute. The supernatent was collected from the cytosolic fraction. The pellet was resuspended in lysis buffer C (20 mM of HEPES (pH 7.4), 400 mM of NaCl, 1 mM of EDTA, 1% of glycerol, 1 mM of DTT, 10 mM of Na3VO4, 50 mM of NaF, 1 mM of PMSF, 1 μg/mL of aprotinin, 1 μg/mL of leupeptin, 1 μg/mL of pepstatin) on ice for 30 minutes. Lysates were centrifuge at 15,000 g at 4° C. for 15 minutes. The supernatent was collected from the nuclear fraction. The protein concentrations in the resultant supernatants were measured with the Bradford reagent, and equal amounts of protein (40 μg) were boiled in Laemmli sample buffer, followed by being resolved by 10 or 15% SDS-PAGE. The proteins were transferred to polyvinylidene fluoride membranes (Immobilon; Millipore, Billerica, Mass.) and then probed overnight with antibodies against JNK, ERK p44/42, p38, NF-κB p65, phospho-JNK, phospho-ERK p44/42, phospho-p38, phospho-NF-κB, (3-actin and histone 3 as indicated (diluted 1:1000). The immunoreactive bands were detected with horseradish peroxidase-conjugated secondary antibodies and visualized by enhanced chemiluminescence.

BDNF: recombinant human BDNF (R&D System), well-known protective neurotrophin for RGCs, used as comparator
RGC loss (Hoechst-positive / PI-positive cells) (RGC-5): RGC loss was prevented | expression of phospho-p38 (p38): only blocked the expression of phospho-p38 at 6 hours | increase in phospho-NF-κB, nuclear fraction (NF-κB): not | increase in total NF-κB expression, cytoplasmic fraction (NF-κB): not | total NF-κB and histone 3, nuclear fraction (NF-κB): no significant changes

N=C(N)NCCCCN [agmatine]
RGC loss (Hoechst-positive / PI-positive cells) (RGC-5): RGC loss was prevented | expression of phospho-p38 (p38): had no effect | increase in phospho-NF-κB, nuclear fraction (NF-κB): suppressed | increase in total NF-κB expression, cytoplasmic fraction (NF-κB): inhibited | total NF-κB and histone 3, nuclear fraction (NF-κB): no significant changes
